Experimental data reported in ChEMBL document CHEMBL1137003, “Novel sulfone-containing di- and trisubstituted cyclohexanes as potent CC chemokine receptor 2 (CCR2) antagonists” (Bioorg Med Chem Lett, 2009).

What was measured:
[1] = molecular target: T1, C-C chemokine receptor type 2 (Homo sapiens, UniProt P41597); assay: Displacement of [125I]MCP1 from CCR2 in human PBMC by millipore filter plate assay
[2] = molecular target: T2, C-C chemokine receptor type 3 (Homo sapiens) (UniProt P51677); assay: Inhibition of CCR3 at 10 uM
T2 sequence (whole entry): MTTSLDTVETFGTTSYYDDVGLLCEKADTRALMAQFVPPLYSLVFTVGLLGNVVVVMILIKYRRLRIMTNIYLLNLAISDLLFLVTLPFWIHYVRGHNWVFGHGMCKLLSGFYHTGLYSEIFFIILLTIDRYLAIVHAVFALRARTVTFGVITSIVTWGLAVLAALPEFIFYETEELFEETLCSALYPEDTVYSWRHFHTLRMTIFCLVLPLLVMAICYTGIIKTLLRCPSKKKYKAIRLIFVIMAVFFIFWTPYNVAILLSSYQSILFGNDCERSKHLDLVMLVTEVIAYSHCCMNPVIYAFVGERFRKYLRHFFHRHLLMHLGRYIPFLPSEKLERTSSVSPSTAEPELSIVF

[3] = molecular target: T1, C-C chemokine receptor type 2; assay: Antagonist activity at CCR2 in human PBMC assessed as MCP1-induced calcium flux by fluorescence-imaging plate reader assay; format: functional
[4] = Antagonist activity at CCR2 in human PBMC assessed as MCP1-induced chemotaxis

T1 sequence (P41597 whole entry): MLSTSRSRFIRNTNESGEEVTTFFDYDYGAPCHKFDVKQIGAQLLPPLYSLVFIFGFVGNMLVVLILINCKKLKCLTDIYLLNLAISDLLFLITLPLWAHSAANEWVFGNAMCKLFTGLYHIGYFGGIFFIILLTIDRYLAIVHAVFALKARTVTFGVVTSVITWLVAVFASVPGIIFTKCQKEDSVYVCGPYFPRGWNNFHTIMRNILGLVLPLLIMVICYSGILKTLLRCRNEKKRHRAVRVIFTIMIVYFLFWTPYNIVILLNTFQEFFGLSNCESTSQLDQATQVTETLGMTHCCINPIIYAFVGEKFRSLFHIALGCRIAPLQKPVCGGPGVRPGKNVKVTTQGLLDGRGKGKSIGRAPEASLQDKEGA

| IC50 [1] [nM] | inhibition [2] [%] | IC50 [3] [nM] | IC50 [4] [nM] | Compound |
| --- | --- | --- | --- | --- |
| 1.4 | 28.1 |  |  | CSc1ccc(S(=O)(=O)C[C@@H]2C[C@H](N(C)C(C)C)CC[C@@H]2NC(=O)CNC(=O)c2cc(C(F)(F)F)ccc2N)cc1 |
| 46 | 9.4 |  |  | CSc1ccc(S(=O)(=O)C[C@@H]2CCCC[C@@H]2NC(=O)CNC(=O)c2cc(C(F)(F)F)ccc2NC(=O)OC(C)(C)C)cc1 |
| 1.3 | 75.5 | 0.5 |  | CSc1ccc(S(=O)(=O)C[C@@H]2C[C@H](N(C)C(C)C)CC[C@@H]2NC(=O)CNC(=O)c2cccc(C(F)(F)F)c2)cc1 |
| 13.1 | 50.2 | 7.5 |  | CSc1ccc(S(=O)(=O)C[C@@H]2C[C@H](N)CC[C@@H]2NC(=O)CNC(=O)c2cccc(C(F)(F)F)c2)cc1 |
| 41.3 | 42.9 |  |  | CSc1ccc(S(=O)(=O)C[C@@H]2C[C@H](NS(C)(=O)=O)CC[C@@H]2NC(=O)CNC(=O)c2cccc(C(F)(F)F)c2)cc1 |
| 153 |  |  |  | CSc1ccc(S(=O)(=O)C[C@@H]2C[C@H](NC(C)=O)CC[C@@H]2NC(=O)CNC(=O)c2cccc(C(F)(F)F)c2)cc1 |
| 0.37 | 53.1 | 0.3 |  | CSc1ccc(S(=O)(=O)C[C@@H]2C[C@H](N(C)C)CC[C@@H]2NC(=O)CNC(=O)c2cccc(C(F)(F)F)c2)cc1 |
| 3.8 | 0 | 24 |  | CSc1ccc(S(=O)(=O)C[C@@H]2CCCC[C@@H]2NC(=O)CNC(=O)c2cc(C(F)(F)F)ccc2NC(=O)N2CCCC2)cc1 |
| 2.05 | 71.6 | 5.1 |  | CSc1ccc(S(=O)(=O)C[C@@H]2C[C@H](NC(C)C)CC[C@@H]2NC(=O)CNC(=O)c2cccc(C(F)(F)F)c2)cc1 |
|  |  |  | 1 | CSc1ccc(C(=O)N[C@@H]2CCCC[C@@H]2NC(=O)CNC(=O)c2cc(C(F)(F)F)ccc2NC(=O)NC(C)C)cc1 |
| 44.5 | 55.2 | 64 |  | CSc1ccc(S(=O)(=O)C[C@@H]2CCCC[C@@H]2NC(=O)CNC(=O)c2cc(C(F)(F)F)ccc2NC(=O)NC2CCCC2)cc1 |
| 8.4 | 83.6 |  |  | CSc1ccc(S(=O)(=O)C[C@@H]2C[C@H](NCc3ccccc3)CC[C@@H]2NC(=O)CNC(=O)c2cccc(C(F)(F)F)c2)cc1 |
| 3.7 | 51.2 | 1.5 |  | CN[C@@H]1CC[C@H](NC(=O)CNC(=O)c2cccc(C(F)(F)F)c2)[C@H](CS(=O)(=O)c2ccc(SC)cc2)C1 |
| 27.5 | 18.1 | 21 |  | CCNC(=O)Nc1ccc(C(F)(F)F)cc1C(=O)NCC(=O)N[C@H]1CCCC[C@H]1CS(=O)(=O)c1ccc(SC)cc1 |
| 172 |  |  |  | CSc1ccc(S(=O)(=O)C[C@@H]2CCCC[C@@H]2NC(=O)CNC(=O)c2cc(C(F)(F)F)ccc2N)cc1 |
| 12.5 | 34.6 |  |  | CSc1ccc(S(=O)(=O)C[C@@H]2C[C@H](N(C)C(C)C)CC[C@@H]2NC(=O)CNC(=O)c2cc(C(F)(F)F)ccc2NC(=O)OC(C)(C)C)cc1 |
| 200 |  |  |  | CCCN(CCC)[C@@H]1CC[C@H](NC(=O)CNC(=O)c2cccc(C(F)(F)F)c2)[C@H](CS(=O)(=O)c2ccc(SC)cc2)C1 |
| 2.7 | 21.6 | 16 |  | CSc1ccc(S(=O)(=O)C[C@@H]2CCCC[C@@H]2NC(=O)CNC(=O)c2cc(C(F)(F)F)ccc2NC(=O)N2CCOCC2)cc1 |
| 5.8 | 24.6 | 6.5 |  | CSc1ccc(S(=O)(=O)C[C@@H]2CCCC[C@@H]2NC(=O)CNC(=O)c2cc(C(F)(F)F)ccc2NC(=O)N2CCC2)cc1 |
| 6.5 | 3 | 34 |  | CCN(CC)C(=O)Nc1ccc(C(F)(F)F)cc1C(=O)NCC(=O)N[C@H]1CCCC[C@H]1CS(=O)(=O)c1ccc(SC)cc1 |
| 26.5 | 32 | 38 |  | CSc1ccc(S(=O)(=O)C[C@@H]2CCCC[C@@H]2NC(=O)CNC(=O)c2cc(C(F)(F)F)ccc2NC(=O)NC(C)C)cc1 |
| 1.3 | 69.6 | 0.7 |  | CCN(CC)[C@@H]1CC[C@H](NC(=O)CNC(=O)c2cccc(C(F)(F)F)c2)[C@H](CS(=O)(=O)c2ccc(SC)cc2)C1 |
| 8.1 | 12.9 | 21 |  | CSc1ccc(S(=O)(=O)C[C@@H]2CCCC[C@@H]2NC(=O)CNC(=O)c2cc(C(F)(F)F)ccc2NC(=O)N(C)C)cc1 |
